Source: patent US10537601B2, “Method of isolating anti-viral ingredients from Baphicacanthus cusia, compositions comprising them and their medical use” (priority 2016, dated 2020)
Where two headings read alike, the source gives them in different places.

Tested on: influenza virus A/PR/8/34 (H1N1)
Experiment: organism not typed
Assay type: cell-based
Conditions: read-out: IC50 (anti-viral activity, 50% inhibitory concentration)
[1] = MDCK cells infected with 100TCID50 of influenza A/PR/8/34 (H1N1), treatment for 48 h, Reed-Muench method

Row | SMILES | IC50 (MDCK, 48 h) | IC50 [1]
1 | C=C(CO)[C@@H]1CC[C@]2(C)CC[C@]3(C)[C@H](CC[C@@H]4[C@@]5(C)CC[C@H](O)C(C)(C)C5CC[C@]43C)[C@@H]12 (stereo partly drawn) [Compound of Formula 19, lup-20(29)-en-3β, 30-diol] | 33.6 µM | 
2 | O=C1COc2ccccc2N1 [Compound of Formula 9, 2H-1,4-benzoxazin-3-one] |  | > 200 µM
3 | NC(=O)c1ncn([C@@H]2O[C@H](CO)[C@@H](O)[C@H]2O)n1 [ribavirin, reference compound] |  | 30.4 µM
4 | O=Cc1c[nH]c2ccccc12 [Compound of Formula 7, 1H-indole-3-carbaldehyde] |  | 42 µM
5 | O=C1Nc2ccccc2O[C@@H]1O [Compound of Formula 5, 2-hydroxy-1,4-benzoxazin-3-one] |  | > 200 µM
